Experiment: Pharmacokinetics of orally administered salmon calcitonin combined with 5-CNAC
Format: in vivo
Excerpt: An oral form of calcitonin would improve patient acceptance and facilitate improved patient compliance by providing a more acceptable, alternative delivery route for peptide therapy. […] Salmon calcitonin appears rapidly in the plasma following oral administration, with median tmax at about 0.25 hr post-dose. Following tmax the plasma concentration fell rapidly. […] Plasma sCT concentrations increased as sCT doses increased. However, with high variability in available data, dose-proportional increase in AUC could not be confirmed.

CC(C)C[C@H](NC(=O)[C@H](CCCCN)NC(=O)CNC(=O)[C@H](CC(C)C)NC(=O)[C@@H](NC(=O)[C@@H]1CSSC[C@H](N)C(=O)N[C@@H](CO)C(=O)N[C@@H](CC(N)=O)C(=O)N[C@@H](CC(C)C)C(=O)N[C@@H](CO)C(=O)N[C@@H]([C@@H](C)O)C(=O)N1)C(C)C)C(=O)N[C@@H](CO)C(=O)N[C@@H](CCC(N)=O)C(=O)N[C@@H](CCC(=O)O)C(=O)N[C@@H](CC(C)C)C(=O)N[C@@H](Cc1c[nH]cn1)C(=O)N[C@@H](CCCCN)C(=O)N[C@@H](CC(C)C)C(=O)N[C@@H](CCC(N)=O)C(=O)N[C@H](C(=O)N[C@@H](Cc1ccc(O)cc1)C(=O)N1CCC[C@H]1C(=O)N[C@@H](CCCNC(=N)N)C(=O)N[C@H](C(=O)N[C@@H](CC(N)=O)C(=O)N[C@H](C(=O)NCC(=O)N[C@@H](CO)C(=O)NCC(=O)N[C@H](C(=O)N1CCC[C@H]1C(N)=O)[C@@H](C)O)[C@@H](C)O)[C@@H](C)O)[C@@H](C)O [salmon calcitonin]
effect of food on bioavailability of sCT (administered with food): markedly reduces
accumulation (AUC after multiple-dose vs single-dose) (oral): No significant accumulation
gastrointestinal (GI) absorption of the sCT (oral, combination with 5-CNAC, rodents, monkeys and humans): marked increase
Tmax (plasma, following oral administration, post-dose, read-out: median tmax): ~15 min
